Tests used:
[1] = target: Dual specificity protein kinase CLK4 (Homo sapiens, UniProt Q9HAZ1)
[2] = target: T1, Dual specificity tyrosine-phosphorylation-regulated kinase 2 (Homo sapiens, UniProt Q92630)
T1 sequence (Q92630 whole entry): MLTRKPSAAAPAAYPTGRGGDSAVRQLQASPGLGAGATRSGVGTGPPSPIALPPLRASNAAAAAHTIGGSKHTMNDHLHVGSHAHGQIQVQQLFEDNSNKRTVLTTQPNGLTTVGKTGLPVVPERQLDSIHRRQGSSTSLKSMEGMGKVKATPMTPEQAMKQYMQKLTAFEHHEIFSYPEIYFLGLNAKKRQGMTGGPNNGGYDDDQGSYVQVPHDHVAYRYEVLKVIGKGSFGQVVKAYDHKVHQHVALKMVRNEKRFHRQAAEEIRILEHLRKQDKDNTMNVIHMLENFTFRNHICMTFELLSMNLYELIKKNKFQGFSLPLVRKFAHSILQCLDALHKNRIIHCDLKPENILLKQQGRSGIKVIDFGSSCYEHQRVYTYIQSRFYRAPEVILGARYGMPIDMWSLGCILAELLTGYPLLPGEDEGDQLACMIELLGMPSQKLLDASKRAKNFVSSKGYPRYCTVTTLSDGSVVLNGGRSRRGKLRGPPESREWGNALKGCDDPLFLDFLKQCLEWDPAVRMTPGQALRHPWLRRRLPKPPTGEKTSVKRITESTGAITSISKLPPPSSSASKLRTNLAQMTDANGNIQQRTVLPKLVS

[3] = target: T2, Dual specificity tyrosine-phosphorylation-regulated kinase 3 (Homo sapiens, UniProt O43781)
T2 sequence (O43781 whole entry): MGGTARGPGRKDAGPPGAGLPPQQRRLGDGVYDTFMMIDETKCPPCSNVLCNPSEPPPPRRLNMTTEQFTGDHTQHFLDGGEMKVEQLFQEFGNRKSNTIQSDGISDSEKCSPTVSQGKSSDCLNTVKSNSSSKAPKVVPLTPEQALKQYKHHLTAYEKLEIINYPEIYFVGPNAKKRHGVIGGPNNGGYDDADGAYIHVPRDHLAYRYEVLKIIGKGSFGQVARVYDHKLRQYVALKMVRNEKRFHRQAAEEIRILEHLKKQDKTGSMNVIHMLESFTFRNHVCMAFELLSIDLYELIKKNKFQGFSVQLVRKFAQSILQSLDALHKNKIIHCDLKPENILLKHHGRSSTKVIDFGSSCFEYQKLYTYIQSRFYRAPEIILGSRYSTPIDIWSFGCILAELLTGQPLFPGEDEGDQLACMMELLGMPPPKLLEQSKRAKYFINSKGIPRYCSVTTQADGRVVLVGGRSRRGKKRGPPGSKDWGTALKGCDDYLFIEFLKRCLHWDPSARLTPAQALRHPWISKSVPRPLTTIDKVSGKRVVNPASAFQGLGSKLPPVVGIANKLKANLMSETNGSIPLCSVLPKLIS

[4] = target: Casein kinase I isoform epsilon (Homo sapiens, UniProt P49674)
[5] = target: Dual specificity protein kinase CLK2 (Homo sapiens, UniProt P49760)
[6] = target: Glycogen synthase kinase-3 beta (Homo sapiens, UniProt P49841); type: cell-based, Sf9
[7] = target: Dual specificity protein kinase CLK1 (Homo sapiens, UniProt P49759); type: cell-based, Sf9
[8] = target: Dual specificity protein kinase CLK3 (Homo sapiens, UniProt P49761); type: cell-based, Sf9
[9] = target: Dual specificity tyrosine-phosphorylation-regulated kinase 1A (Homo sapiens, UniProt Q13627)
[10] = target: T3, Dual specificity tyrosine-phosphorylation-regulated kinase 4 (Homo sapiens, UniProt Q9NR20)
T3 sequence (Q9NR20 whole entry): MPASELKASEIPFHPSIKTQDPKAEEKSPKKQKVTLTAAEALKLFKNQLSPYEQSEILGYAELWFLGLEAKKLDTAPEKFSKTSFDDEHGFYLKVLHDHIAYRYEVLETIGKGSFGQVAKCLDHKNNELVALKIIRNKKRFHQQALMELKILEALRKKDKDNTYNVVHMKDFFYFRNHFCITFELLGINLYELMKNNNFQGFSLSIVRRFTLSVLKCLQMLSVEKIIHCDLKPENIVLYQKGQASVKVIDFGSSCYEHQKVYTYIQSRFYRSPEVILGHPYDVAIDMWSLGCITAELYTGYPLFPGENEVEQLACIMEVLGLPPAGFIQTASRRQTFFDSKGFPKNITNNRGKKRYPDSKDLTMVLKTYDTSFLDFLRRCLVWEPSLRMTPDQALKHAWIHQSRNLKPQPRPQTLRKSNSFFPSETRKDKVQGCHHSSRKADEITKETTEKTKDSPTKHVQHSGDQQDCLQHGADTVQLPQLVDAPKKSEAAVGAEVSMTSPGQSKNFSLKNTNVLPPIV

[11] = target: Cyclin-dependent kinase 5/CDK5 activator 1 (Homo sapiens, UniProt Q00535); type: cell-based, Sf9
Cyclin-dependent kinase 5/CDK5 activator 1, sequence (Q00535 whole entry): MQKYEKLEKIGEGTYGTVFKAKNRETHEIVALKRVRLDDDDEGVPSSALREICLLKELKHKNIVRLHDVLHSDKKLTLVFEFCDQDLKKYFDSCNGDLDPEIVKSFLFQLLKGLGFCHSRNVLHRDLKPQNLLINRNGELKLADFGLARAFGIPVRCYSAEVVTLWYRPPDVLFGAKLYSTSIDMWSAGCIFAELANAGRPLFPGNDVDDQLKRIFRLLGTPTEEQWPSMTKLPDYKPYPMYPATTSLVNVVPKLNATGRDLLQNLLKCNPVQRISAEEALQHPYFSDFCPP
Cyclin-dependent kinase 5/CDK5 activator 1, sequence (Q15078 whole entry, further chain): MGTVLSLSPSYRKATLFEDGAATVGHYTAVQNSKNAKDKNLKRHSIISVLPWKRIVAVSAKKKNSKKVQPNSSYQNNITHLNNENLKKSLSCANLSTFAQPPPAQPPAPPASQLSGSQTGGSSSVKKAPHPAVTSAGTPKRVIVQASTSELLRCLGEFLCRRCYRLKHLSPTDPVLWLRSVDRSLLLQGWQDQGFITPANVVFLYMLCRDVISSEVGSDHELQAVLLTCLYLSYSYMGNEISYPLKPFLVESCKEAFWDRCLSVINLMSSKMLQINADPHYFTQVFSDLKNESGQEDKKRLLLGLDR

Dual specificity protein kinase CLK4, sequence (Q9HAZ1 whole entry): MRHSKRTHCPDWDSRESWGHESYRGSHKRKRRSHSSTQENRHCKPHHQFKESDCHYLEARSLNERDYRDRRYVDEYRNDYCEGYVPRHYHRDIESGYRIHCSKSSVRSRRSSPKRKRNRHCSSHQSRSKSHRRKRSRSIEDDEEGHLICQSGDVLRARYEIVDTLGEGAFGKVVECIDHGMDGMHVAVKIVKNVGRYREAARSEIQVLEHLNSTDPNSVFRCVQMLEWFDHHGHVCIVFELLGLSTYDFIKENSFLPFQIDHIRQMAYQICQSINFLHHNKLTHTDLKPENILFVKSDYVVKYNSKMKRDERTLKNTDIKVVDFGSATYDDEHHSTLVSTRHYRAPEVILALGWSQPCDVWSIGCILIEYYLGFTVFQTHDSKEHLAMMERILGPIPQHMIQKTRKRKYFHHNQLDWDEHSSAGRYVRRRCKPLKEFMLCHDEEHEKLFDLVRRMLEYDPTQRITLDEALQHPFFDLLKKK
Casein kinase I isoform epsilon, sequence (P49674 whole entry, canonical isoform): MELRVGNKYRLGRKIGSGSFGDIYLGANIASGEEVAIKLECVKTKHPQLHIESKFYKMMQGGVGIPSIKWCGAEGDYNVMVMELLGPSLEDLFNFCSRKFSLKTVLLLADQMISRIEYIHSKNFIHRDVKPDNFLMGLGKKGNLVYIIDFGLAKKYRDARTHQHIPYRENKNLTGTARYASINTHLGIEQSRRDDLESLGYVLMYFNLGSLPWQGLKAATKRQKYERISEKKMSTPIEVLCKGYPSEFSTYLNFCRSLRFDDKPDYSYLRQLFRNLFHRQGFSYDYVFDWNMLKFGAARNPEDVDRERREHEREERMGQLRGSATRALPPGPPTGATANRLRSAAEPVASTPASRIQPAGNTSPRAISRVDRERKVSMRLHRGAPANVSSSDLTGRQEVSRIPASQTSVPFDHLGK
Glycogen synthase kinase-3 beta, sequence (P49841 whole entry): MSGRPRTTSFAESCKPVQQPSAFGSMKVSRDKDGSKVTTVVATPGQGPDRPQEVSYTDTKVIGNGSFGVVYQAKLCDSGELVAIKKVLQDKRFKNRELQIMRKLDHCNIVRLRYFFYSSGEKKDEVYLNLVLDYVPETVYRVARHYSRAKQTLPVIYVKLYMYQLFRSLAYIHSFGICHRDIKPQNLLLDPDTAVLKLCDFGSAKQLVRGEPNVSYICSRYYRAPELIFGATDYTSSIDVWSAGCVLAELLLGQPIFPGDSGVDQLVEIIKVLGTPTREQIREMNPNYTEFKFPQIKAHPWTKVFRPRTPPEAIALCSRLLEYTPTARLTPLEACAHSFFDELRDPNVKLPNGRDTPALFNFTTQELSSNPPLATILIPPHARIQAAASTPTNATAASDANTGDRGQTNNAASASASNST
Dual specificity protein kinase CLK3, sequence (P49761 whole entry): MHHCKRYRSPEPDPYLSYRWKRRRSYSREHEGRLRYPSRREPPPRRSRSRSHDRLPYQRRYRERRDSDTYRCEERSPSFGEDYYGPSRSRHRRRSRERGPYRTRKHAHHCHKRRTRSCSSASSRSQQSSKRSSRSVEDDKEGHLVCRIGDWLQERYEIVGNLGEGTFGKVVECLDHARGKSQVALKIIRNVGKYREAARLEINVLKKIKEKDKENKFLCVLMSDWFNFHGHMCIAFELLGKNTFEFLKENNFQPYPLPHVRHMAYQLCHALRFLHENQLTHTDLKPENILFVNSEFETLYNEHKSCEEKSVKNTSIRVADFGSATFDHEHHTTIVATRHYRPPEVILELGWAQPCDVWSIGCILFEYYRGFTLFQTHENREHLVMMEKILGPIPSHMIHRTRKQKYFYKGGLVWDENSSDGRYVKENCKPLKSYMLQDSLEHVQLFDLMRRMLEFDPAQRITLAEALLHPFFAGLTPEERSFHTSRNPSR
Dual specificity protein kinase CLK2, sequence (P49760 whole entry): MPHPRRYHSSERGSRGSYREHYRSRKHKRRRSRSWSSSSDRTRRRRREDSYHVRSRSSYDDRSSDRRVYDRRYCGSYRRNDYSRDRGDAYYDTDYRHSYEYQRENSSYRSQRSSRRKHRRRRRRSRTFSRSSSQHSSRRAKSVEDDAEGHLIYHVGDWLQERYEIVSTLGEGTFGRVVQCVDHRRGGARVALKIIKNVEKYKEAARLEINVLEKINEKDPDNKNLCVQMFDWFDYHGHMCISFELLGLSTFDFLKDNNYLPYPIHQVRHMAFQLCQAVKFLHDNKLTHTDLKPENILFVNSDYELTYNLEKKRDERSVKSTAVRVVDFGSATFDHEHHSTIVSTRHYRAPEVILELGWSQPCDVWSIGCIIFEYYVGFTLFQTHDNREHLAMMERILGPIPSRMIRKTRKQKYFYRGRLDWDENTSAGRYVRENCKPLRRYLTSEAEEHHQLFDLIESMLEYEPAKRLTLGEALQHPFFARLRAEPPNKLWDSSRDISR
Dual specificity protein kinase CLK1, sequence (P49759 whole entry): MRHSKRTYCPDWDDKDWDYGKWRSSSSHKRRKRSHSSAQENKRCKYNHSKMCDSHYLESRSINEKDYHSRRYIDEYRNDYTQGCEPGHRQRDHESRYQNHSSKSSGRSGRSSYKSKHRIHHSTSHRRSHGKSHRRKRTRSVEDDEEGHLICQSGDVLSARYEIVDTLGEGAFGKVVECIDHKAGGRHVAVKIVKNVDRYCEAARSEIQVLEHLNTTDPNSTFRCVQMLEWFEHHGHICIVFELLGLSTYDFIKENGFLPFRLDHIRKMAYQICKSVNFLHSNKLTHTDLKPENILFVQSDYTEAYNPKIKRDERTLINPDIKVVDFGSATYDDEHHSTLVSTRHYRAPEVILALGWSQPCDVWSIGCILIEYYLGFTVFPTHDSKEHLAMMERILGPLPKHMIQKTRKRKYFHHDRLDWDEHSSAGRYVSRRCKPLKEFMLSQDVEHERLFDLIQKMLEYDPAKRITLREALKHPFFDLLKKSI

Compound	IC50 [1] [µM]	IC50 [2] [µM]	IC50 [3] [µM]	IC50 [4] [µM]	IC50 [5] [µM]	IC50 [6] [µM]	IC50 [7] [µM]	IC50 [8] [µM]	IC50 [9] [µM]	IC50 [10] [µM]	IC50 [11] [µM]
Cn1cnc2ccc(/C=C3\N=C(NC45CC6CC(CC(C6)C4)C5)NC3=O)cc21	0.003	0.095	0.068	> 10	0.003	1.54	0.009	1.06	0.007	0.08	0.65
O=C1NC(NC23CC4CC(CC(C4)C2)C3)=N/C1=C\c1ccc2ncoc2c1	0.003	0.062	0.038	> 10	–	0.202	0.008	8.53	0.001	–	0.28
O=C1NC(NC2CCCCCC2)=N/C1=C\c1ccc2ncoc2c1	0.011	0.566	1.14	> 10	0.174	3.02	0.018	0.285	0.013	0.617	> 10
O=C1NC(NC2CCCCC2)=N/C1=C\c1ccc2c(c1)OCO2	0.043	–	2.08	> 10	0.955	8.4	0.092	4.28	0.074	1.32	> 10
COc1ccc(/C=C2\N=C(Nc3ccc(N4CCN(C)CC4)cc3)NC2=O)cc1O	0.012	0.015	0.01	–	0.03	0.2	0.012	0.7	0.014	–	–
Cn1cnc2cc(/C=C3\N=C(NC45CC6CC(CC(C6)C4)C5)NC3=O)ccc21	> 10	> 10	> 10	> 10	> 10	> 10	> 10	> 10	> 10	> 10	> 10
O=C1NC(NC2CCCCCC2)=N/C1=C\c1ccc2[nH]ccc2c1	> 10	> 10	> 10	> 10	> 10	> 10	> 10	> 10	> 10	> 10	> 10
Cn1ccc2cc(/C=C3\N=C(NC4CCCCCC4)NC3=O)ccc21	> 10	> 10	> 10	> 10	> 10	> 10	> 10	> 10	> 10	> 10	> 10
Cn1ccc2cc(/C=C3\N=C(NC4CCCCC4)NC3=O)ccc21	> 10	> 10	> 10	> 10	> 10	> 10	> 10	> 10	> 10	> 10	> 10
O=C1NC(NC23CC4CC(CC(C4)C2)C3)=N/C1=C\c1ccc2[nH]ncc2c1	0.004	0.26	0.074	–	0.014	7.77	0.005	1.08	0.01	0.663	> 10
O=C1NC(NC23CC4(F)CC(F)(CC(F)(C4)C2)C3)=N/C1=C\c1ccc2ncsc2c1	0.004	0.01	0.002	0.062	–	0.094	0.011	0.09	0.001	0.146	0.025
O=C1NC(NC23CC4CC(CC(C4)C2)C3)=N/C1=C\c1ccc2[nH]ccc2c1	2.55	> 10	> 10	> 10	3.61	> 10	8.83	> 10	0.957	> 10	> 10
O=C1NC(NC2CCCCC2)=N/C1=C\c1ccc2[nH]ccc2c1	> 10	> 10	> 10	> 10	> 10	> 10	> 10	> 10	> 10	> 10	> 10
CN1CCN(c2ccc(NC3=N/C(=C\c4ccc5c(c4)OCCO5)C(=O)N3)cc2)CC1	0.019	0.008	0.014	–	0.067	0.12	0.017	1.1	0.007	–	–
O=C1NC(NC23CC4CC(CC(C4)C2)C3)=N/C1=C\c1ccc2c(c1)OCO2	0.004	0.183	–	> 10	0.096	> 10	0.017	> 10	0.002	1.64	> 10
Cn1cnc2cc(/C=C3\N=C(NC4CCCCC4)NC3=O)ccc21	> 10	> 10	> 10	> 10	> 10	> 10	> 10	> 10	> 10	> 10	> 10
O=C1NC(NC2CCCCC2)=N/C1=C\c1ccc2c(c1)CCO2	0.052	3.39	–	> 10	1.25	> 10	0.104	5.38	0.237	2.99	> 10
Cn1cnc2cc(/C=C3\N=C(NC4CCCCCC4)NC3=O)ccc21	> 10	> 10	> 10	> 10	> 10	> 10	> 10	> 10	> 10	> 10	> 10
Cn1ncc2cc(/C=C3\N=C(NC4CCCCC4)NC3=O)ccc21	0.649	2.54	–	> 10	7.77	> 10	2.51	1.71	0.141	> 10	> 10
Cn1ccc2cc(/C=C3\N=C(NC45CC6CC(CC(C6)C4)C5)NC3=O)ccc21	> 10	> 10	> 10	> 10	> 10	> 10	> 10	> 10	> 10	> 10	> 10
COC(=O)[C@H](C)NC1=N/C(=C\c2ccc3ncsc3c2)C(=O)N1	0.007	0.413	1.23	> 10	0.086	5.14	0.02	0.284	0.007	2.29	> 10

— ChEMBL document CHEMBL5360622, “Leucettinibs, a Class of DYRK/CLK Kinase Inhibitors Inspired by the Marine Sponge Natural Product Leucettamine B” (J Med Chem, 2023)
